Measurements taken from US4186202A, “Phenyl-pyridylamine derivatives” (priority 1974, dated 1980).
Where a name gives a salt, the structure may show the parent alone.

What was measured:
[1] = in vivo; cited from earlier work
[2] = test system: uptake of 3H-noradrenaline; test: Inhibition of uptake of 3H-noradrenaline in mouse midbrain slices after in vivo (i.p.) administration; details: ip, at the dose 101 μmole/kg i.p., read-out: inhibition recorded (uptake of 3H-NA, in vivo)
Procedure: It is not possible by experimental means to induce depressions in laboratory animals. In order to evaluate a possible anti-depressive effect of new substances biochemical-pharmacological test methods must be resorted to. One such method, which seems to give a good indication of the potential anti-depressive effects of the test substances, is described in Europ. […] The test substances were administered intraperitoneally half an hour before the animals were killed. […] The incubation time was 5 minutes with 5 minutes of preincubation before the labelled amines were added. The slices were dissolved in Soluene® and the amounts of radio-active amines taken up were determined by liquid scintillation. […] Active uptake is defined as that part of the radioactive uptake which is inhibited by a high concentration of cocaine.

[3] = test system: uptake of 14C-5-hydroxytryptamine; test: Inhibition of uptake of 14C-5-HT in mouse midbrain slices after in vivo (i.p.) administration; details: i.p. half an hour before killing, dose producing 50 percent decrease of active uptake; for ED50: Mus musculus, ip, 0.5 h
Procedure: (§1) It is not possible by experimental means to induce depressions in laboratory animals. In order to evaluate a possible anti-depressive effect of new substances biochemical-pharmacological test methods must be resorted to. One such method, which seems to give a good indication of the potential anti-depressive effects of the test substances, is described in Europ.
(§2) The test substances were administered intraperitoneally half an hour before the animals were killed. […] The incubation time was 5 minutes with 5 minutes of preincubation before the labelled amines were added. The slices were dissolved in Soluene® and the amounts of radio-active amines taken up were determined by liquid scintillation. […] Active uptake is defined as that part of the radioactive uptake which is inhibited by a high concentration of cocaine.

[4] = test system: uptake of 14C-5-hydroxytryptamine; test: Inhibition of uptake of 14C-5-HT in mouse midbrain slices, in vitro; format: biochemical; details: 5 minutes preincubation, 5 minutes incubation
Procedure: as §1, §2
In the in vitro method, slices of mouse midbrain were preincubated for 5 minutes with a solution of the compound to be tested and then incubated as described above.

EC50 [4]	Compound	antidepressive effect [1]	inhibition at 101 µmol/kg [2]	Uptake of 14C-5-HT, in vivo ED50 ([3]; 30 min)	ED50 [3]
–	CN(C)CC=C(c1ccccc1)c1ccccc1	have an antidepressive effect	–	–	–
–	CNC/C=C(/c1ccc(Br)cc1)c1cccnc1 [H, Z, hydrochloride, 3-(4-bromophenyl)-N-methyl-3-(3-pyridyl)-allylamine]	–	38%	15.2 μmole/kg i.p.	–
500 nM	CNC/C=C(/c1ccc(Br)cc1)c1cccnc1 [H, Z, oxalate, 3-(4-bromophenyl)-N-methyl-3-(3-pyridyl)-allylamine]	–	–	–	18 µmol/kg
500 nM	CNCC=C(c1ccc(Br)cc1)c1cccnc1 [H, mixture, oxalate, 3-(4-bromophenyl)-N-methyl-3-(3-pyridyl)-allylamine]	–	–	–	32 µmol/kg
